# Test results published in patent publication US5079261A, “Use of lipoxin A4 and its derivatives as antagonists for slow-reacting substances of anaphylaxis” (Brigham and Women's Hospital, priority 1989, dated 1992).
# Assays:
# [1] = target: T1, mesangial cell LTD4 receptor (Rattus norvegicus, UniProt Q924T8); conditions: 10 nM [3H]-LTD4
# T1 sequence (Q924T8 1-339): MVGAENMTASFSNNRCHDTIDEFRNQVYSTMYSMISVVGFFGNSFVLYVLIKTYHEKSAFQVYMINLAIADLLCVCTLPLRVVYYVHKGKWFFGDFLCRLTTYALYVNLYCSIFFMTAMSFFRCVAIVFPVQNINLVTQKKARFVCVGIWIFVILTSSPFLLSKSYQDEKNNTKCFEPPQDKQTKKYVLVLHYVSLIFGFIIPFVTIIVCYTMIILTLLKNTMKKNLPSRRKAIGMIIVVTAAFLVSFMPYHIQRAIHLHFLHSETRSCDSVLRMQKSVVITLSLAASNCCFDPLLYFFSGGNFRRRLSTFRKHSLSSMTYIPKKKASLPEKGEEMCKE
# Description: Mesangial Cell Culture: Rat mesangial cells were isolated and cultured as described previously (Harris, R. C., et al., J. Clin. Invest. 82:1028-1039(1988). Briefly, kidneys were exicesed from two young Sprague-Dawly rats under sterile conditions, and the cortices removed, minced, and washed several times in Hank's Balanced Salt Solution, containing 10 mM HEPES pH 7.4, amphotericin (0.25 μg/ml), and gentamicin (50 μg/ml). The tissue was then passed through consecutive sterilized stainless mesh filters with pore sizes of 212 μm, 150 μm, and then onto the final mesh of 75 μm. The isolated glomeruli were harvested from the surface of the 75 μm. The isolated glomeruli were harvested from the surface of the 75 μm filter and washed twisce with the Hank's Media. The glomeruli were suspended in RPMI 1640 Medium with 15% Fetal Bovine Serum (Givco), penicillin (100 μ/ml) and streptomycin (100 μg/ml) (Gibco), plated into 100 mm cell culture petri dishes, and incubated at 37° C. in a humidified atmosphere of 95% air and 5% air and 5% CO2. Mesangial cell colonies were subcultured in 60 mm culture dishes, and experiments were carried out in cells from passages 2 to 12. […] Cells were routinely grown in RPMI-1640, supplemented with 20% fetal calf serum, penicillin 100 μ/ml, and streptomycin 100 μg/ml.
# Binding studies were routinely performed at 4° C. […] The cells were then dissolved with 1.0 ml of 1.0 N NaOH, neutralized with HCl, dissolved in 10 ml of Aquasol (New England Nuclear, Boston, MA), and the bound radioactivity was determined using a scintillation counter (Beckman Instruments). […] Cell density was determined by counting cells from replicate wells, using a Coulter Counter ZBi (Coulter Electronics, Inc., Hialeah, Fla.).
# [2] = system: guinea pig ileum or trachea; conditions: cited from earlier work
# [3] = Renal function in vivo in anesthetized rats (AP, Hct, RPF, GFR) during intrarenal arterial infusion; parameters: species or system male Munich-Wistar rats; conditions: for AP / GFR / Hct / RPF: LXA4 20-min infusion, n=3
# Description: Statistical: ANOVA with Bonferroni modification for multiple pre-planned comparisons was used, within each group and between groups, to compare the changes in various whole kidney and microcirculatory indices which occurred from one period to another. In phosphoinositide generation studies, increases in [^3 H]-IP3 CPMs in agonist-treated cells were compared to vehicle-treated controls using upaired students t-test. Differences were considered significant at a p value ≤0.05. All values are reported as means ± SEM.
# Inulin and para-aminohippurate (PAH) clearances Were used to measure GFR and effective RPF. A needle was placed at the take-off of the left renal artery through which a maintenance infusion of 0.9% NaCl at a rate of 0.05 ml/min was initiated. […] Two experimental groups
# Group I (n=14). First period: Clearances were performed during vehicle infusion.
# Group II (n=12). First period: Clearances were performed during vehicle infusion.
# [4] = system: hamster cheek pouch; conditions: topical; cited from earlier work
# [5] = Group II, third period, LTD4 in the presence of LXA4
# [6] = LTD4 14.0 μg/kg/min + LXA4, p<0.05 vs baseline
# [7] = LTD4 20.0 μg/kg/min + LXA4, p<0.05 vs baseline
smiles,measurement,setting,value
"CCCCC[C@H](O)/C=C/C=C\C=C\C=C\[C@@H](O)[C@@H](O)CCCC(=O)O [LXA4, (5S,6R,15S)-5,6,15-trihydroxy-7,9,13-trans-11-cis-eicosatetraenoic acid]",Competition for [3H]-LTD4 binding compared with LTB4,[1],"several-fold greater than that of the non-peptidoleukotriene, LTB4"
same,Competition for [3H]-LTD4 binding compared with LTE4,[1],equipotent to that of LTE4
same,Contraction of ileum or trachea,[2],not guinea pig ileum or trachea
same,GFR and RPF change (in words),"[3]; Group II, LXA4 infusion, period 2",moderate increases
same,AP,"[3]; Group II, period 2, subgroup A",121 ± 4 mmHg
same,GFR,"[3]; Group II, period 2, subgroup A",1.20 ± 0.20 mL/min
same,Hct,"[3]; Group II, period 2, subgroup A",43.7 ± 0.9 Vol./dl
same,RPF,"[3]; Group II, period 2, subgroup A",4.50 ± 0.08 mL/min
same,AP,"[3]; Group II, period 2, subgroup B",120 ± 0 mmHg
same,GFR,"[3]; Group II, period 2, subgroup B",0.98 ± 0.06 mL/min
same,Hct,"[3]; Group II, period 2, subgroup B",44.7 ± 1.2 Vol./dl
same,RPF,"[3]; Group II, period 2, subgroup B",4.76 ± 0.83 mL/min
same,AP,"[3]; Group II, period 2, subgroup C",127 ± 2 mmHg
same,GFR,"[3]; Group II, period 2, subgroup C",1.30 ± 0.10 mL/min
same,Hct,"[3]; Group II, period 2, subgroup C",45.2 ± 0.7 Vol./dl
same,RPF,"[3]; Group II, period 2, subgroup C",4.87 ± 0.10 mL/min
same,AP,"[3]; Group II, period 2, subgroup D",108 ± 3 mmHg
same,GFR,"[3]; Group II, period 2, subgroup D",1.27 ± 0.04 mL/min
same,Hct,"[3]; Group II, period 2, subgroup D",44.5 ± 0.3 Vol./dl
same,RPF,"[3]; Group II, period 2, subgroup D",4.58 ± 0.20 mL/min
same,Effect on LTD4-induced falls in RPF,[3]; [5],without effect
same,Effect on LTD4-provoked reduction in GFR,[3]; [5],marked blunting
same,Mean percent fall in GFR during LTD4 in the presence of LXA4,[3]; LTD4 0.5 μg/kg/min + LXA4,9%
same,Mean percent fall in RPF during LTD4 in the presence of LXA4,"[3]; LTD4 0.5 μg/kg/min + LXA4, p<0.05 vs baseline",20%
same,Mean percent fall in GFR during LTD4 in the presence of LXA4,[3]; LTD4 7.0 μg/kg/min + LXA4,11%
same,Mean percent fall in RPF during LTD4 in the presence of LXA4,"[3]; LTD4 7.0 μg/kg/min + LXA4, p<0.05 vs baseline",37%
same,Mean percent fall in GFR during LTD4 in the presence of LXA4,[3]; [6],42%
same,Mean percent fall in RPF during LTD4 in the presence of LXA4,[3]; [6],51%
same,Mean percent fall in GFR during LTD4 in the presence of LXA4,[3]; [7],50%
same,Mean percent fall in RPF during LTD4 in the presence of LXA4,[3]; [7],68%
same,Arteriolar dilation,[4],pronounced arteriolar dilation
same,Venular diameters,[4],does not change venular diameters
